The text below walks through data of ChEMBL document CHEMBL4425144, “Discovery and Structural Optimization of N5-Substituted 6,7-Dioxo-6,7-dihydropteridines as Potent and Selective Epidermal Growth Factor Receptor (EGFR) Inhibitors against L858R/T790M Resistance Mutation” (J Med Chem, 2016).

The structures appear in SMILES notation. Converted amounts (≈) assume the structure as drawn. A value given as a limit tells only on which side of the number the result lay.

Series [1] has as its system NCI-H1975. As to the kind of experiment: Antiproliferative activity against human NCI-H1975 cells incubated for 72 hrs by SRB assay. The class given is functional, cell-based. As to conditions: NCI-H1975, 72 h. On the technique in general: The SRB assay estimates cell density from bound dye.
Series [2] is described as follows: Thermodynamic solubility of the compound in 0.1M PBS buffer at pH 7.4 by UV-visible spectrophotometry. The class given is physicochemical. Particulars: read-out: Therm_solubility.
Series [3] has as its system A-431. As to the kind of experiment: Antiproliferative activity against human A431 cells incubated for 72 hrs by SRB assay. It is filed as functional, cell-based. Particulars: A-431, 72 h.
Series [4] deals with Epidermal growth factor receptor (Homo sapiens, UniProt P00533, L858R/T790M). The series is described as follows: Inhibition of EGFR kinase domain L858R/T790M mutant (unknown origin) expressed using baculovirus expression system incubated for 1 hr using Poly(Glu,Tyr) 4:1 by ELISA method.
Epidermal growth factor receptor (Homo sapiens, UniProt P00533, L858R/T790M), sequence (P00533 25-1210 T790M/L858R limits assumed): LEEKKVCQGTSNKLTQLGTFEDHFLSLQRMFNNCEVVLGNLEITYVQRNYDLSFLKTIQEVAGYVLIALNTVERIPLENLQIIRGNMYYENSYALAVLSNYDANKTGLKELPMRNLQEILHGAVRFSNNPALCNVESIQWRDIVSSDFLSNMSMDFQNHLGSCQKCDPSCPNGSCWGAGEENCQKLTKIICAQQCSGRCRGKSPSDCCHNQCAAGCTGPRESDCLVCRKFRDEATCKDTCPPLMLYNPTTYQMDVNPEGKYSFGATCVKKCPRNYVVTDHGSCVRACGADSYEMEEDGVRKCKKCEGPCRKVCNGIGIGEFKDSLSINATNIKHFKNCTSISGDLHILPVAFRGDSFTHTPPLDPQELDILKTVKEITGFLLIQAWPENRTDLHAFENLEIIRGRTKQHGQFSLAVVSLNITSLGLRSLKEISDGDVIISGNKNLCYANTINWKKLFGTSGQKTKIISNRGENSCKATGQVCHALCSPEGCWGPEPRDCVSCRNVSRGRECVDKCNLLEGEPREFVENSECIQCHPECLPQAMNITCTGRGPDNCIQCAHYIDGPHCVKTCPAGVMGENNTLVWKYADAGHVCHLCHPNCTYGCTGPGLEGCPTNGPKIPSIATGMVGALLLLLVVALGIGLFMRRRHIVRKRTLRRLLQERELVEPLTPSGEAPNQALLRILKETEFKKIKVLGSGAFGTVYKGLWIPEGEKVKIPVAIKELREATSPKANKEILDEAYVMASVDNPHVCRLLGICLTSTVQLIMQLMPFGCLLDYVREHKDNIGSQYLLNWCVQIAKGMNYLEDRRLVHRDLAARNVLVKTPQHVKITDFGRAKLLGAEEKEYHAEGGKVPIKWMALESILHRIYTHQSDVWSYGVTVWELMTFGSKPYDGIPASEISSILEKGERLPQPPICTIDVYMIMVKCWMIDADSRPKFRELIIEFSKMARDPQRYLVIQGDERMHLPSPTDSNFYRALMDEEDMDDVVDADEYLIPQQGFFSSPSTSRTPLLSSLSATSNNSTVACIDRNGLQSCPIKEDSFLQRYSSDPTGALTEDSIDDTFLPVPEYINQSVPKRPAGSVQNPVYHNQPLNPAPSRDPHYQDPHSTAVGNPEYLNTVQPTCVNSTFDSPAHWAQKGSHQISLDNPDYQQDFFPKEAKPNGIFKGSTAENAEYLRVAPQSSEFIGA
The nature of series [5]: Dissociation constant, pKa of the compound by Sirius T3 based assay. The class given is physicochemical.
Series [6] has as its target Epidermal growth factor receptor (Homo sapiens, UniProt P00533). As to the kind of experiment: Inhibition of wild type EGFR kinase domain (unknown origin) expressed using baculovirus expression system incubated for 1 hr using Poly(Glu,Tyr) 4:1 by ELISA method. Background: In an ELISA, binding on a coated surface is turned into a signal by an enzyme label.
Series [7] concerns A-431. As to the kind of experiment: Antitumor activity against human A431 cells xenografted in BALB/c mouse assessed as inhibition of tumor growth at 25 mg/kg, po qd for 14 consecutive days. The class given is functional. Particulars: A-431, po, read-out: TGI. (In general: In xenograft studies the graft and the host belong to different species.)

Epidermal growth factor receptor (Homo sapiens, UniProt P00533), sequence (P00533 whole entry, the tested form may be a part): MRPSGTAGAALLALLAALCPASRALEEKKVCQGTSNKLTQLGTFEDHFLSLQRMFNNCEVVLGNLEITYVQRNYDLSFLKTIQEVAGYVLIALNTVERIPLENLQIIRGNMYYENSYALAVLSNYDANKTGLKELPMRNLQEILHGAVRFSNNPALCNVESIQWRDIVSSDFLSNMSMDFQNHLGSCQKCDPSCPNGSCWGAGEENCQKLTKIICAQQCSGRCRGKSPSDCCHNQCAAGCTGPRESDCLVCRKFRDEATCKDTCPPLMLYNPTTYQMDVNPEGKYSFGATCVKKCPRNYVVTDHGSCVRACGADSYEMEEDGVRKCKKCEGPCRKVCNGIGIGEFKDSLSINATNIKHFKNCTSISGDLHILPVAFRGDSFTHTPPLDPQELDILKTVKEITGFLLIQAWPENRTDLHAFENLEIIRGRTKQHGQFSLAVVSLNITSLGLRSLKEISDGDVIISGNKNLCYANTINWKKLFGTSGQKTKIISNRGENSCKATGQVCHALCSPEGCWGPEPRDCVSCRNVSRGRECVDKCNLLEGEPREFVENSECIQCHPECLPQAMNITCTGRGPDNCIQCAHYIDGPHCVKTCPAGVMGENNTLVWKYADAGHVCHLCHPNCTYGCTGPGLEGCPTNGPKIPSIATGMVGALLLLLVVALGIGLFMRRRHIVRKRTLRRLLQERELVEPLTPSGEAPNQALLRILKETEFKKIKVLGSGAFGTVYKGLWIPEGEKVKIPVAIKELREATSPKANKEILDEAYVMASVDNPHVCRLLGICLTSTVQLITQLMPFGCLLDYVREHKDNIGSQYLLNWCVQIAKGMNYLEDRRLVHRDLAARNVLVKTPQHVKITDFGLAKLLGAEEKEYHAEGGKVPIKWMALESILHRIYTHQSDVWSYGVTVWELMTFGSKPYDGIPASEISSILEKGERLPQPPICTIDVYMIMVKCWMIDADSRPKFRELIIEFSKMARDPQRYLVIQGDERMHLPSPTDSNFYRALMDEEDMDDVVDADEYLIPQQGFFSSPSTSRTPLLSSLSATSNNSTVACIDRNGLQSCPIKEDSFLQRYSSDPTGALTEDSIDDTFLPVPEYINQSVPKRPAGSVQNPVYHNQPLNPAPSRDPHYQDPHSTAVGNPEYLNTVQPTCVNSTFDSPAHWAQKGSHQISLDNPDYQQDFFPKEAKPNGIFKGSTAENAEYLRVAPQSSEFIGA

As a reminder, the IC50 is the midpoint of a concentration-inhibition curve. Lower therefore signals inhibition by little substance. One may read the pKa as the pH at which an ionisable group is half protonated. On to `C=CC(=O)Nc1cccc(-n2c(=O)c(=O)n(C)c3cnc(Nc4ccc(N5CCN(C)CC5)cc4OC)nc32)c1`, for which the IC50 in series [1] is 1770 nM; in series [3], more than 10000 nM; in series [4] it was 4.7 nM; in series [6], 474 nM. Moreover, the solubility thermodynamic in series [2] was determined as 392 µg/mL (≈ 722 µM). Further, the pKa in series [5] turned out to be 7.3.
For the molecule `C=CC(=O)Nc1cccc(-n2c(=O)c(=O)n(C(C)C)c3cnc(Nc4ccc(N5CCC(N6CCN(C)CC6)CC5)cc4OC)nc32)c1`, the IC50 in series [1] was 1190 nM; in series [3], 2260 nM; in series [4], 7.8 nM; in series [6] it was 28 nM. The solubility thermodynamic in series [2] was determined as 109 µg/mL (≈ 167 µM). In series [5], this molecule gave a pKa of 8.8.
`C=CC(=O)Nc1cccc(-n2c(=O)c(=O)n(C(C)C)c3cnc(Nc4ccc(N5CCN(C)CC5)c(OC)c4)nc32)c1`: the IC50 came out at 213 nM in series [1], 669 nM in series [3], 1.3 nM in series [4] and 8.6 nM in series [6]. The solubility thermodynamic in series [2] was determined as 298 µg/mL (≈ 522 µM). The molecule also registered a pKa in series [5] of 8.4.
With `C=CC(=O)Nc1cccc(-n2c(=O)c(=O)[nH]c3cnc(Nc4ccc(N5CCN(C)CC5)cc4OC)nc32)c1`, the IC50 in series [1] was more than 10000 nM; in series [3], more than 10000 nM; in series [4] it was 2.5 nM; in series [6], 2.8 nM. Further, the solubility thermodynamic in series [2] is 839 µg/mL (≈ 1590 µM). In series [5], the pKa was 7.8.
Consider `CN(C)C/C=C/C(=O)Nc1cc2c(Nc3ccc(F)c(Cl)c3)ncnc2cc1O[C@H]1CCOC1` [AFATINIB], for which the inhibition in vivo at 25 mg/kg in series [7] stood at 94%.
Consider `C=CC(=O)Nc1cccc(-n2c(=O)c(=O)n(C(C)C)c3cnc(Nc4ccc(N(C)CCN(C)C)cc4OC)nc32)c1`, for which the IC50 is 440 nM in series [1], 1530 nM in series [3], 17 nM in series [4] and 223 nM in series [6]. Further, in series [2], the solubility thermodynamic amounted to 1620 µg/mL (≈ 2830 µM). In addition, the pKa in series [5] was 8.9.
In the case of `C=CC(=O)Nc1cccc(-n2c(=O)c(=O)n(CC)c3cnc(Nc4ccc(N5CCN(C)CC5)cc4OC)nc32)c1`, the IC50 was determined as 126 nM in series [1], 8820 nM in series [3], 1.2 nM in series [4] and 81 nM in series [6]. Further, the solubility thermodynamic in series [2] was less than 10 µg/mL. The molecule further returned a pKa in series [5] of 7.4.
Consider `C=CC(=O)Nc1cccc(-n2c(=O)c(=O)n(C(C)C)c3cnc(Nc4ccc(N5CCN(C)CC5)c(C)c4)nc32)c1`, for which the IC50 came out at 151 nM in series [1], 309 nM in series [3], 1.5 nM in series [4] and 1.4 nM in series [6]. The solubility thermodynamic in series [2] turned out to be 190 µg/mL (≈ 343 µM). Besides, the pKa in series [5] is 8.1.
As to `C=CC(=O)Nc1cccc(-n2c(=O)c(=O)n(C(C)C)c3cnc(Nc4ccc(OCCN(C)C)cc4OC)nc32)c1`, the IC50 was found to be 415 nM in series [1], 1500 nM in series [3], 143 nM in series [4] and 68 nM in series [6]. Further, the solubility thermodynamic in series [2] came out at 437 µg/mL (≈ 781 µM). Moreover, the pKa in series [5] was 8.8.
For `C=CC(=O)Nc1cccc(-n2c(=O)c(=O)n(CCC)c3cnc(Nc4ccc(N5CCN(C)CC5)cc4OC)nc32)c1`, the IC50 came out at 119 nM in series [1], 2140 nM in series [3], 0.6 nM in series [4] and 2.2 nM in series [6]. In addition, the solubility thermodynamic in series [2] was less than 10 µg/mL. This molecule also came in with a pKa in series [5] of 7.5.
